By IC50 is commonly meant the point on the concentration scale where inhibition reaches its midpoint. Low values mean higher potency, high ones lower potency.

For this assay, the system named is Wnt activity (Sp5-Luc reporter, SW480 colon carcinoma cells). Put plainly: Screening assay for Wnt activity: Sp5-Luc reporter gene assay in SW480 cells. In kind it is cell-based. Particulars: Homo sapiens, 42 h incubation, luminescence. An excerpt: The screening assay for Wnt activity is described as follows. Reporter cell lines can be generated by stably transducing cancer cell lines (e.g., colon cancer) or primary cells (e.g., IEC-6 intestinal cells) with a lentiviral construct that includes a Wnt-responsive promoter driving expression of the firefly luciferase gene.
SW480 colon carcinoma cells were transduced with a lentiviral vector expressing luciferase with a human Sp5 promoter consisting of a sequence of eight TCF/LEF binding sites. SW480 cells stably expressing the Sp5-Luc reporter gene and a hygromycin resistance gene were selected by treatment with 150 μg/ml of hygromycin for 7 days. These stably transduced SW480 cells were expanded in cell culture and used for all further screening activities. For Sp5-Luc reporter gene assays, the cells were plated at 10,000 cells/well in 96-well plates with growth medium containing 10% fetal calf serum and incubated overnight at 37° C. and 5% CO2. Each compound was dissolved in DMSO as a 10 mM stock in standard j-vials and used to prepare compound source plates in dose-response format with 3-fold serial dilutions and a 10 mM top concentration. Compound transfer from serially diluted source plates to assay plates containing the cells was accomplished using a pintool (Multimek 96, Beckman equipped with V&P Scientific FP1S50H pins) based liquid handling protocol. This protocol used a slotted pin to transfer 50 nl of compound from a source plate well to an assay plate well containing 50 μl of cells in growth medium. […] Control wells received 50 nl of DMSO treatment for normalization and calculating IC50 values. The treated cells were incubated at 37° C. and 5% CO2 for an additional forty-two hours. Following incubation, the growth medium was removed and 50 μl of BrightGlo luminescence reagent (Promega) was added to each well of the 96-well assay plates. The plates were placed on an orbital shaker for 5 min and then luminescence was quantified on the Victor3 (Perkin Elmer) plate reader. Readings were normalized to DMSO only treated cells, and normalized activities were utilized for IC50 calculations using the dose-response log (inhibitor) vs. response-variable slope (four parameters) nonlinear regression feature available in GraphPad Prism 5.0 or 6.0.
For orientation: Reporter assays use an easily measured gene product as a stand-in for the process of interest.
In the case of `CCCCC(=O)Nc1cncc(-c2ccc3[nH]nc(-c4nc5c(-c6ccccn6)nccc5[nH]4)c3c2)c1` [Compound 148, N-(5-(3-(4-(Pyridin-2-yl)-1H-imidazo[4,5-c]pyridin-2-yl)-1H-indazol-5-yl)pyridin-3-yl)pentanamide], the IC50 was 248 nM.

As for `CC(C)CC(=O)Nc1cncc(-c2ccc3[nH]nc(-c4nc5c(-c6cc(O)cc(F)c6)nccc5[nH]4)c3c2)c1` [Compound 2164, N-(5-(3-(4-(3-Fluoro-5-hydroxyphenyl)-1H-imidazo[4,5-c]pyridin-2-yl)-1H-indazol-5-yl)pyridin-3-yl)-3-methylbutanamide], the IC50 is 35 nM.

For `Cc1ncc(-c2ccc3[nH]nc(-c4nc5c(-c6cccc(F)c6)nccc5[nH]4)c3c2)n1C` [Compound 1773, 2-(5-(1,2-Dimethyl-1H-imidazol-5-yl)-1H-indazol-3-yl)-4-(3-fluorophenyl)-1H-imidazo[4,5-c]pyridine], 23 nM corresponded to half-maximal inhibition (IC50).

For the compound `O=C(Cc1ccccc1)Nc1cncc(-c2ccc3[nH]nc(-c4nc5c(-c6ccncc6)nccc5[nH]4)c3c2)c1` [Compound 114, 2-Phenyl-N-(5-(3-(4-(pyridin-4-yl)-1H-imidazo[4,5-c]pyridin-2-yl)-1H-indazol-5-yl)pyridin-3-yl)acetamide], the concentration for half-maximal inhibition (IC50) is 36 nM.

In the case of `CCCC(=O)Nc1cncc(-c2ccc3[nH]nc(-c4nc5c(-c6ccncc6)nccc5[nH]4)c3c2)c1` [Compound 121, N-(5-(3-(4-(Pyridin-4-yl)-1H-imidazo[4,5-c]pyridin-2-yl)-1H-indazol-5-yl)pyridin-3-yl)butyramide], the IC50 is 102 nM.

`CN(C)Cc1cncc(-c2ccc3[nH]nc(-c4nc5c(-c6ccsc6)nccc5[nH]4)c3c2F)c1` [Compound 1573, 1-(5-(4-Fluoro-3-(4-(thiophen-3-yl)-1H-imidazo[4,5-c]pyridin-2-yl)-1H-indazol-5-yl)pyridin-3-yl)-N,N-dimethylmethanamine] registered a half-inhibitory concentration (IC50) of 3060 nM.

Compound `CC(C)Nc1cncc(-c2ccc3[nH]nc(-c4nc5c(N6CCCCC6)nccc5[nH]4)c3c2)c1` [Compound 168, N-Isopropyl-5-(3-(4-(piperidin-1-yl)-1H-imidazo[4,5-c]pyridin-2-yl)-1H-indazol-5-yl)pyridin-3-amine] showed an IC50 of 88.1 nM.

In the case of `CN1CCN(c2nccc3[nH]c(-c4n[nH]c5ccc(-c6cn[nH]c6)cc45)nc23)CC1` [Compound 1915, 2-(5-(1H-pyrazol-4-yl)-1H-indazol-3-yl)-4-(4-methylpiperazin-1-yl)-1H-imidazo[4,5-c]pyridine], half-maximal inhibition (IC50) was put at 70 nM.

In turn, `CN1CCN(c2nccc3[nH]c(-c4n[nH]c5ccc(-c6cncc(F)c6)cc45)nc23)CC1` [Compound 2276, 2-(5-(5-Fluoropyridin-3-yl)-1H-indazol-3-yl)-4-(4-methylpiperazin-1-yl)-1H-imidazo[4,5-c]pyridine] came in with a concentration for half-maximal inhibition (IC50) of 439 nM. Compared with the last compound, the IC50 is about 6.3-fold higher.

In turn, `CC(C)CC(=O)Nc1cncc(-c2ccc3[nH]nc(-c4nc5c(-c6cc(F)cc(OCCN7CCCC7)c6)nccc5[nH]4)c3c2)c1` [Compound 2120, N-(5-(3-(4-(3-Fluoro-5-(2-(pyrrolidin-1-yl)ethoxy)phenyl)-1H-imidazo[4,5-c]pyridin-2-yl)-1H-indazol-5-yl)pyridin-3-yl)-3-methylbutanamide] registered a half-maximal inhibitory concentration (IC50) of 305 nM.

In the case of `CN(C)Cc1cncc(-c2cc3c(-c4nc5c(-c6cc(F)cc(CNS(C)(=O)=O)c6)nccc5[nH]4)n[nH]c3cc2F)c1` [Compound 1288, N-(3-(2-(5-(5-((Dimethylamino)methyl)pyridin-3-yl)-6-fluoro-1H-indazol-3-yl)-1H-imidazo[4,5-c]pyridin-4-yl)-5-fluorobenzyl)methanesulfonamide], the IC50 is 637 nM.

On to `FC1(F)CCN(c2nccc3[nH]c(-c4n[nH]c5ccc(-c6cccnc6)cc45)nc23)CC1` [Compound 2273, 4-(4,4-Difluoropiperidin-1-yl)-2-(5-(pyridin-3-yl)-1H-indazol-3-yl)-1H-imidazo[4,5-c]pyridine], for which the IC50 stood at 50 nM.

In the case of `CC(=O)c1ccc(-c2nccc3[nH]c(-c4n[nH]c5ccc(-c6cncc(NC(=O)CC(C)(C)C)c6)cc45)nc23)s1` [Compound 380, N-(5-(3-(4-(5-Acetylthiophen-2-yl)-1H-imidazo[4,5-c]pyridin-2-yl)-1H-indazol-5-yl)pyridin-3-yl)-3,3-dimethylbutanamide], the IC50 is 187 nM.

`Fc1cccc(-c2nccc3[nH]c(-c4n[nH]c5ccc(-c6cncc(OCc7ccccc7)c6)cc45)nc23)c1` [Compound 1782, 2-(5-(5-(Benzyloxy)pyridin-3-yl)-1H-indazol-3-yl)-4-(3-fluorophenyl)-1H-imidazo[4,5-c]pyridine] displayed an IC50 of 575 nM.

`CN(C)Cc1cncc(-c2cc(F)c3[nH]nc(-c4nc5c(-c6cccc(F)c6)nccc5[nH]4)c3c2)c1` [Compound 456, 1-(5-(7-Fluoro-3-(4-(3-fluorophenyl)-1H-imidazo[4,5-c]pyridin-2-yl)-1H-indazol-5-yl)pyridin-3-yl)-N,N-dimethylmethanamine] returned a half-inhibitory concentration (IC50) of 90 nM.

`CN(C)Cc1cncc(-c2cc3c(-c4nc5c(-c6ccsc6)nccc5[nH]4)n[nH]c3cc2F)c1` [Compound 1132, 1-(5-(6-Fluoro-3-(4-(thiophen-3-yl)-1H-imidazo[4,5-c]pyridin-2-yl)-1H-indazol-5-yl)pyridin-3-yl)-N,N-dimethylmethanamine] had an IC50 of 3680 nM.

`CN(C)Cc1cncc(-c2cc3c(-c4nc5c(-c6cccc(F)c6)nccc5[nH]4)n[nH]c3cc2F)c1` [Compound 898, 1-(5-(6-Fluoro-3-(4-(3-fluorophenyl)-1H-imidazo[4,5-c]pyridin-2-yl)-1H-indazol-5-yl)pyridin-3-yl)-N,N-dimethylmethanamine] displayed an IC50 of 1450 nM. Against the preceding compound, the IC50 is about 2.5-fold lower.

As to `CN1CCN(c2nccc3[nH]c(-c4n[nH]c5ccc(-c6cccnc6)cc45)nc23)CC1` [Compound 212, 4-(4-Methylpiperazin-1-yl)-2-(5-(pyridin-3-yl)-1H-indazol-3-yl)-1H-imidazo [4,5-c]pyridine], the concentration for half-maximal inhibition (IC50) was 65 nM.

Compound `CN(C)Cc1cncc(-c2cc(F)c3[nH]nc(-c4nc5c(-c6cc(F)cc(CNS(C)(=O)=O)c6)nccc5[nH]4)c3c2)c1` [Compound 844, N-(3-(2-(5-(5-((Dimethylamino)methyl)pyridin-3-yl)-7-fluoro-1H-indazol-3-yl)-1H-imidazo[4,5-c]pyridin-4-yl)-5-fluorobenzyl)methanesulfonamide] displayed an IC50 of 96 nM.

Source of the values: US10081631B2, “2-(1H-indazol-3-yl)-1H-imidazo[4,5-C]pyridine and therapeutic uses thereof” (Samumed, LLC, priority 2014, dated 2018).
